One data set concerns the target CYP2C9 (Homo sapiens, UniProt P11712). Kind of data set: CYP inhibition in human liver microsomes. Conditions: human, human liver microsomes, probe diclofenac.
In the next data set the target is CYP2C19 (Homo sapiens, UniProt P33261). In words: CYP inhibition in human liver microsomes. The note with it: human, human liver microsomes, probe mephenytoin.
For another data set, the target named is T1, CYP2C8 (Homo sapiens, UniProt P10632).
T1 sequence (P10632 1-490): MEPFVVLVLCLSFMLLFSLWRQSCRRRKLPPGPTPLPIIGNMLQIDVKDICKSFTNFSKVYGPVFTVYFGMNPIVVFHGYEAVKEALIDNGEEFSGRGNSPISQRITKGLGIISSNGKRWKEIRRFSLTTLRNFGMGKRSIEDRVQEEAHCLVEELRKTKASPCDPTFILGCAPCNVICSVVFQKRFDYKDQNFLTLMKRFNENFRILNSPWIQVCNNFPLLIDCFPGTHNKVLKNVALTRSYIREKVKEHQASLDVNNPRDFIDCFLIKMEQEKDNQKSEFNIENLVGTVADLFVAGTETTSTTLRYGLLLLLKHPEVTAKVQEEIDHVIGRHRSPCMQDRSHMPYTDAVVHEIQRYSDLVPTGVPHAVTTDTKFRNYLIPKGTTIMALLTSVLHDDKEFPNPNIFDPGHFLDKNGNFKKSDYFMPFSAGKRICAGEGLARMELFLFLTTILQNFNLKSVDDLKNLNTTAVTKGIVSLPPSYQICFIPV
In words: CYP inhibition in human liver microsomes. Conditions: human, human liver microsomes, probe paclitaxel.

The next data set concerns the target T2, CYP1A2 (Homo sapiens, UniProt P05177).
T2 sequence (P05177 1-516): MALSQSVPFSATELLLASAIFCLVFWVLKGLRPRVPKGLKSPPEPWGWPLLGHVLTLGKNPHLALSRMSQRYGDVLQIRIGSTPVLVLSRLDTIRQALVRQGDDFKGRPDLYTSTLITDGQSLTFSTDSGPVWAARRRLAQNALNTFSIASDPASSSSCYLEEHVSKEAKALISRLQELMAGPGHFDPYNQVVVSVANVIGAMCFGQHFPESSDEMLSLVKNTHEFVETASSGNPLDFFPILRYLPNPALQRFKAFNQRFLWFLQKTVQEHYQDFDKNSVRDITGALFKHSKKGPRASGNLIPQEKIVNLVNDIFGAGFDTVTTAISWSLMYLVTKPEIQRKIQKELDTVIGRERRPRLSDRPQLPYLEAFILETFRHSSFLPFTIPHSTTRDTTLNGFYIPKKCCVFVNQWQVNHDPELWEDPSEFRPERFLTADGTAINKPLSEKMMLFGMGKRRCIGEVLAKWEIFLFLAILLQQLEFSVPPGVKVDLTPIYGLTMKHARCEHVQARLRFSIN
Kind of data set: CYP inhibition in human liver microsomes. The note with it: human, human liver microsomes, probe phenacetin.

The target in a further data set is T3, P-gp (Homo sapiens, UniProt P08183).
T3 construct: expressed in transfected cells; host or cells: MDCK-II cells
T3 sequence (P08183 whole entry): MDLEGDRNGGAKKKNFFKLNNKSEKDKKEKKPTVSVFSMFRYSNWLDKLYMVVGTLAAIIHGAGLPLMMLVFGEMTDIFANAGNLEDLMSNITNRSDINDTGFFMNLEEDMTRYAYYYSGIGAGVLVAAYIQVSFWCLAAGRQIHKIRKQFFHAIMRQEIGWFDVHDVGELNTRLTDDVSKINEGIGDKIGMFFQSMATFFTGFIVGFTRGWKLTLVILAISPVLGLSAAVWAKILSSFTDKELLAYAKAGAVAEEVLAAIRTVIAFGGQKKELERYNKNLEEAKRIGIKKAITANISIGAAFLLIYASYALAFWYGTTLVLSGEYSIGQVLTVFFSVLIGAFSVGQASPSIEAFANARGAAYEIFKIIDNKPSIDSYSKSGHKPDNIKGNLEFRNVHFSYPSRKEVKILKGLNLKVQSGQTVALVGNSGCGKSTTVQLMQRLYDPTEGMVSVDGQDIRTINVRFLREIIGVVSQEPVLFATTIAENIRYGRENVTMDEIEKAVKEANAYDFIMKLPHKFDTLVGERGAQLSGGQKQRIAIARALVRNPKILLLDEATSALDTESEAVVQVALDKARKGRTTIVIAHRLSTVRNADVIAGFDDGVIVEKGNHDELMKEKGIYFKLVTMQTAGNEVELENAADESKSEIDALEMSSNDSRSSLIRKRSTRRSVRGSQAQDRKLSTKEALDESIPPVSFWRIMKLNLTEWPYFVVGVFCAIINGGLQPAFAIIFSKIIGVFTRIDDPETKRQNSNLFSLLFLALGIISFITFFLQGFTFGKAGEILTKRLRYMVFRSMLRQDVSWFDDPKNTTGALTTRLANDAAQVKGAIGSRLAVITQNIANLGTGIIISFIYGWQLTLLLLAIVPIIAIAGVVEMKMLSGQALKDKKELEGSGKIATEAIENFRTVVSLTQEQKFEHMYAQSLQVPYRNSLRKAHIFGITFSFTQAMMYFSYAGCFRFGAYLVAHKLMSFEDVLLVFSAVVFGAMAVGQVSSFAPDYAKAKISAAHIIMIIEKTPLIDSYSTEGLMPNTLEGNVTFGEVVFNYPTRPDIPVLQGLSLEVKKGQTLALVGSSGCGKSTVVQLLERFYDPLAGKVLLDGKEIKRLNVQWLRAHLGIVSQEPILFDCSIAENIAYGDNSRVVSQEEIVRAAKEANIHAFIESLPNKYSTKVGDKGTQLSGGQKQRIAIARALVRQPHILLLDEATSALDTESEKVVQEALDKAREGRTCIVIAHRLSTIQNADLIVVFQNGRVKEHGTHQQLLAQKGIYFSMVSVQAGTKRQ
In words: Transporter mediated assay (substrate/inhibitor), MDCK-II cells. The class given is in vitro ADME. The note with it: P-gp, substrate test, 0.1 µM.

A further data set deals with T4, CYP2B6 (Homo sapiens, UniProt P20813).
T4 sequence (P20813 1-491): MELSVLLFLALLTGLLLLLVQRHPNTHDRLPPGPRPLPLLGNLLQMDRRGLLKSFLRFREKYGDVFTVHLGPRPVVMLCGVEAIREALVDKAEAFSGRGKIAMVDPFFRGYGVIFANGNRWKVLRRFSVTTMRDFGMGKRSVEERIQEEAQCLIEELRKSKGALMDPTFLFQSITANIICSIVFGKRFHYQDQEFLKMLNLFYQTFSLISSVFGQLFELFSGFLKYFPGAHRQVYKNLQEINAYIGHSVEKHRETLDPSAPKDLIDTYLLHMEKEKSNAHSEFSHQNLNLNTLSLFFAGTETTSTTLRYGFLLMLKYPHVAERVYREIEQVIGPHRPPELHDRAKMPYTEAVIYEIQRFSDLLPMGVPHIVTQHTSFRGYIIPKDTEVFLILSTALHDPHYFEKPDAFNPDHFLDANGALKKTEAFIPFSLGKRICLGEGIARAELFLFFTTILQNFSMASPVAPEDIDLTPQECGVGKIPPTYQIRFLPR
In words: CYP inhibition in human liver microsomes. The note with it: human, human liver microsomes, probe bupropion.

A further data set has as its target CYP2D6 (Homo sapiens, UniProt P10635). Kind of data set: CYP inhibition in human liver microsomes. Conditions: human, human liver microsomes, probe bufuralol.
Another data set addresses T5, OCT2 (Homo sapiens, UniProt O15244).
T5 construct: expressed in transfected cells; host or cells: MDCK-II cells
T5 sequence (O15244 1-555): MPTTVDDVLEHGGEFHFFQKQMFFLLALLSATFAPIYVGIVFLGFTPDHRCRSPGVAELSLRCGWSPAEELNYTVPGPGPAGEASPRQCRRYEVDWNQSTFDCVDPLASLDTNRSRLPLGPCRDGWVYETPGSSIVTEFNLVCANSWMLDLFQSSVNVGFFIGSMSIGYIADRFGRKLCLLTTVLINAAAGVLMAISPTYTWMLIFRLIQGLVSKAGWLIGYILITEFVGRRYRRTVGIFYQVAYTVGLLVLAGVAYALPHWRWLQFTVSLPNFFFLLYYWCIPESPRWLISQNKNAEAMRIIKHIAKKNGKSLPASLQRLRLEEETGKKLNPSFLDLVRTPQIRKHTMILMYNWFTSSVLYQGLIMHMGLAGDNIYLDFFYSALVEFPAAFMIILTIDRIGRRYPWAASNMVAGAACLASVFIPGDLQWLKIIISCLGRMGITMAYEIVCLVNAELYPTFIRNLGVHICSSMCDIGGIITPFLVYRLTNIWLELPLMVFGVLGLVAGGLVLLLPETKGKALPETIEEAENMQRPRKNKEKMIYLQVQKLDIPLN
Kind of data set: Transporter mediated assay (substrate/inhibitor), MDCK-II cells. The class given is in vitro ADME. The note with it: human, polarized monolayer of MDCK-II cells expressing OCT2; OCT2, No BSA, 1000 μM.

The nature of data set [1]: Metabolic stability in liver microsomes. The note with it: for % remaining: monkey liver microsomes, 10 μM.
A short description of data set [2]: Metabolic stability in liver microsomes.
Data set [3] in a line: Metabolic stability in liver microsomes. This is another data set of the same source.
Data set [4] is described as follows: Stability in the absence of hepatocytes. Conditions: no hepatocytes, 10 μM.
Experimental: (§1) CYP3A4 substrate Midazolam (10 μM) was prepared and incubated in the same manner. […] In addition, in vitro half-life (t1/2, min) and intrinsic clearance (CLint, μl/min/10^6 cells) were calculated [10, 11].
A short description of data set [5]: Metabolic stability in hepatocyte. Conditions: Sprague Dawley, rat, hepatocytes.
Experimental: as §1
The test system of the next data set is rat hepatocytes. In words: Metabolic stability in hepatocyte. Conditions: rat hepatocytes, 10 μM.
The nature of data set [6]: Metabolic stability in liver microsomes. The note with it: for % remaining: dog liver microsomes, 10 μM.
The next data set concerns human hepatocytes. Kind of data set: Metabolic stability in hepatocyte. Conditions: human hepatocytes, 10 μM.
Data set [7] can be described thus: Metabolic stability in hepatocyte. The note with it: human, hepatocytes.
Experimental: as §1
A further data set relates to dog hepatocytes. In words: Metabolic stability in hepatocyte. The note with it: dog hepatocytes, 10 μM.
Data set [8] is described as follows: Metabolic stability in hepatocyte. Conditions: Beagle, dog, hepatocytes.
Experimental: as §1
Another data set concerns the target T6, BCRP (Homo sapiens, UniProt Q9UNQ0).
T6 construct: expressed in transfected cells; host or cells: MDCK-II cells
T6 sequence (Q9UNQ0 1-655): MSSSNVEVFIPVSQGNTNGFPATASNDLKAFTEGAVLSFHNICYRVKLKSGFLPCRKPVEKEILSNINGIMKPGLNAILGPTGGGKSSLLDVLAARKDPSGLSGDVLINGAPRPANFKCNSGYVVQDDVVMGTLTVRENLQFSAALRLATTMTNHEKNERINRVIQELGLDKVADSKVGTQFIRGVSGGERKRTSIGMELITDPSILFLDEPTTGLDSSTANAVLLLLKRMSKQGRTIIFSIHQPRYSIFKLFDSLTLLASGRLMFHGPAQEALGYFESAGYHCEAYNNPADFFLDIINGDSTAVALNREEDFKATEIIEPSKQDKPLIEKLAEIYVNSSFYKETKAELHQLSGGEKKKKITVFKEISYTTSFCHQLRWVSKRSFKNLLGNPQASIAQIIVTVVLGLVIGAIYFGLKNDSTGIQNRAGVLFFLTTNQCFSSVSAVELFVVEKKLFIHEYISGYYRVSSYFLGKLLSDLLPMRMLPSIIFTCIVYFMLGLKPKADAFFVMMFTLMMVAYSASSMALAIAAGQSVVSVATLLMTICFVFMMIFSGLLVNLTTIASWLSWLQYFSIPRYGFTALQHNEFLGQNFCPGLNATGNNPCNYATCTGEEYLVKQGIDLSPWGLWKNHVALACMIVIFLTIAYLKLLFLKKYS
In words: Transporter mediated assay (substrate/inhibitor), MDCK-II cells. The class given is in vitro ADME. Conditions: BCRP, substrate test, 2 µM.

Chain of CYP2C19 (P33261 whole entry): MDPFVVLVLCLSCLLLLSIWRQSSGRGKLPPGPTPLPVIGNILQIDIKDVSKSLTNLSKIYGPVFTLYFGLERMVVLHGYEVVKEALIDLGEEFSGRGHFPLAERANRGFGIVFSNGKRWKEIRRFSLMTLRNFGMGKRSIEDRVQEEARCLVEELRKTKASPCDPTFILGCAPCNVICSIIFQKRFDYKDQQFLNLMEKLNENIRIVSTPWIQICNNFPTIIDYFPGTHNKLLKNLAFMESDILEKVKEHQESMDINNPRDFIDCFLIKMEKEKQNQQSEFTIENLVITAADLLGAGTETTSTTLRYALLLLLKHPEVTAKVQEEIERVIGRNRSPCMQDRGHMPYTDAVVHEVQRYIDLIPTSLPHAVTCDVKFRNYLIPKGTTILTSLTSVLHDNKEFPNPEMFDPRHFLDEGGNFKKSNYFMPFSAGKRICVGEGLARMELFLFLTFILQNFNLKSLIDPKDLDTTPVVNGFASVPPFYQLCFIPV
Chain of CYP2C9 (P11712 whole entry): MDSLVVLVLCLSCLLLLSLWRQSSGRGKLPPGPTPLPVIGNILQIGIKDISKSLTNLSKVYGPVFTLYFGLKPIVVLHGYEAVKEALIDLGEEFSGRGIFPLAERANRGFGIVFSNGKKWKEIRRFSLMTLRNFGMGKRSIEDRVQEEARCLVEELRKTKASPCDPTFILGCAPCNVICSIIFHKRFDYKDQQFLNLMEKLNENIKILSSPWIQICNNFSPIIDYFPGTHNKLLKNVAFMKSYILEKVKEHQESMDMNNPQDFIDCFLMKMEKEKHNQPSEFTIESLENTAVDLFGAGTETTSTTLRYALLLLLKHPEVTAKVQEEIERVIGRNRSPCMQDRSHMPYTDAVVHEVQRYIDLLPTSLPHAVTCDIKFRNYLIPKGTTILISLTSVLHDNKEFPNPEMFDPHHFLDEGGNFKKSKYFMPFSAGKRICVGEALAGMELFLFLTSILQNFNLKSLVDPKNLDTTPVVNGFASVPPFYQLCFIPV
Chain of CYP2D6 (P10635 whole entry): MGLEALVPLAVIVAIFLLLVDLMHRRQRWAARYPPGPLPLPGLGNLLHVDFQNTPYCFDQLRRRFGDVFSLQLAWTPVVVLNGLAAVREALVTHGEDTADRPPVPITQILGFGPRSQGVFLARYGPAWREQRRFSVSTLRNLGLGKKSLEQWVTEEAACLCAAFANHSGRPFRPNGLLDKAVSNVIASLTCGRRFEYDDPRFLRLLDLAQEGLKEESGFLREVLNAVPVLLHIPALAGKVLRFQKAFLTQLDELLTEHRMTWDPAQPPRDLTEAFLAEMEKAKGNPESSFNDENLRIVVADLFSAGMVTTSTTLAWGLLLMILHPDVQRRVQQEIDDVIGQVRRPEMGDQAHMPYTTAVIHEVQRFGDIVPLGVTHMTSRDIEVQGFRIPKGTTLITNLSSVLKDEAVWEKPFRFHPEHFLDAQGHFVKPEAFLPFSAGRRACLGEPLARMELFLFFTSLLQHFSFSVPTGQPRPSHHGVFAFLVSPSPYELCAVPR
Experimental for BCRP: (§2) The MDCK-II cells were treated to express the transporter of interest.
(§3) For BCRP and P-gp, the apparent permeability Papp and Efflux Ratio (ER) were calculated [16]. Net basal (B) to apical (A) flux (B → A) of the substrate transport (pmol/min/cm^2) by BCRP or P-gp was calculated by subtracting A → B flux from B → A flux.
Experimental for OCT2: The MDCK-II cells were treated to express the transporter of interest. The transport of each probe substrate was determined by radiometric detection (Fig 1 in S1 File). […] For the uptake assay, the net transporter-mediated uptake-rate (V) of the substrate by each SLC transporter was calculated as follows: Transporter–mediatedupdaterate(pmol/min/cm^2)=(Cellularaccumulationincellsexpressingthetransporter)−(Meancellularaccumulationincontrolcells)/Surfacearea×incubationtime
Fold of activity and percent inhibition were determined as follows: Foldofactivity=(Meanuptakerate)transporterexpressingcells/(Meanuptakerate)controlcells Percentinhibition=100−100×(Transport‐mediatedupdaterate)withinhibitor/(Transport‐mediatedupdaterate)vehiclecontrol
Experimental for P-gp: as §2, §3
Experimental for dog hepatocytes: as §1
Experimental for human hepatocytes: as §1
Experimental for rat hepatocytes: as §1

As to `C=C[C@H]1C[N@@]2CC[C@H]1C[C@@H]2[C@@H](O)c1ccnc2ccc(OC)cc12` [quinidine, reference compound], the activity at 20 min, 2 µM at CYP2C9 worked out at 82.7 ± 1.1%; on CYP2C19, 97.7 ± 2.3%; at CYP2C8, 71.3 ± 2.2%; on CYP1A2 it was 88.3 ± 1%; on CYP2B6, 91.6 ± 2.4%; at CYP2D6 it was 17.3 ± 0.2%. Besides, the “Vectorial Net Transport (B->A) - (A->B)” value on P-gp worked out at 0.52 ± 0.03 pmoles/min/cm^2. Besides, the apical-to-basolateral permeability (Papp A→B) at 0.1 µM at P-gp (human, MDCK-MDR1) came out at 2.62 ± 0.42 ×10⁻⁶ cm/s. Further, the Papp B→A at 0.1 µM at P-gp (human, MDCK-MDR1) is 80.7 ± 4.23 ×10⁻⁶ cm/s. The same compound registered an inhibition at 1000 µM against OCT2 of 100 ± 0.21%.

As to `Cc1ncc2n1-c1ccc(Cl)cc1C(c1ccccc1F)=NC2` [Midazolam, reference compound], the “% remaining” value is 0.0% in [1] (60 min); 0.0% in [1] (90 min); 0.0% in data set [1] (120 min); 0.0% in data set [2] (human liver microsomes, 10 μM, 120 min); 0.0% in data set [3] (rat liver microsomes, 10 μM, 120 min); 0.0% in [6] (90 min). The “% remaining” value in [6] (120 min) was 0.0%. The amount remaining at 0 h, 10 μM in [1] (monkey, microsomes, pH 7.4) stood at 100%; in [2] (human, microsomes, pH 7.4), 100%; in [3] (rat, microsomes, pH 7.4), 100%; in data set [6] (dog, microsomes, pH 7.4) it was 100%. The share remaining at 0.5 h, 10 μM in data set [1] (monkey, microsomes, pH 7.4) worked out at 0.1%; in data set [2] (human, microsomes, pH 7.4) it was 9.7%; in [3] (rat, microsomes, pH 7.4), 5.8%; in data set [6] (dog, microsomes, pH 7.4) it was 0.3%. For the same compound, the share remaining at 2 h, 10 μM stood at 91.8% in data set [1] (monkey, microsomes, pH 7.4); 101% in data set [2] (human, microsomes, pH 7.4); 102% in data set [3] (rat, microsomes, pH 7.4); 95.8% in data set [6] (dog, microsomes, pH 7.4). Moreover, the share remaining at 1 h, 10 μM in [2] (human, microsomes, pH 7.4) is 1%; in data set [3] (rat, microsomes, pH 7.4), 0.4%; in data set [6] (dog, microsomes, pH 7.4) it was 0.1%. Also, the amount remaining at 1.5 h, 10 μM in data set [2] (human, microsomes, pH 7.4) is 0.2%; in [3] (rat, microsomes, pH 7.4), 0.1%. Further, the “% remaining Vs T = 0 min” value in data set [4] (0 min) is 100.0%; in data set [4] (30 min), 97.7%; in data set [4] (60 min), 97.6%; in data set [4] (90 min), 98.6%; in [4] (120 min), 98.5%; with rat hepatocytes (0 min), 100.0%. Moreover, the “% remaining Vs T = 0 min” value in the data set with rat hepatocytes (30 min) is 89.0%; with rat hepatocytes (60 min), 77.8%; in the data set on rat hepatocytes (90 min), 70.5%; in the data set with rat hepatocytes (120 min) it was 65.7%; in the data set with human hepatocytes (0 min), 100.0%; in the data set on human hepatocytes (30 min) it was 91.7%. For the same compound, the “% remaining Vs T = 0 min” value in the data set with human hepatocytes (60 min) is reported as 85.3%; in the data set on human hepatocytes (90 min) it was 80.7%; in the data set on human hepatocytes (120 min) it was 72.4%; with dog hepatocytes (0 min), 100.0%; in the data set with dog hepatocytes (30 min), 66.6%; with dog hepatocytes (60 min) it was 50.8%. The “% remaining Vs T = 0 min” value came out at 31.2% in the data set with dog hepatocytes (90 min) and 19.5% with dog hepatocytes (120 min). The half-life at 10 μM in [5] was determined as 3.22 h; in data set [7], 4.45 h; in [8], 0.855 h. The hepatocyte CLint at 10 μM in [5] was 7.2 µL/min/1e6 cells; in data set [7], 5.2 µL/min/1e6 cells; in data set [8], 27 µL/min/1e6 cells.

In the case of `COc1cc2nc(N3CCN(C(=O)c4ccco4)CC3)nc(N)c2cc1OC` [prazosin, reference compound], at BCRP, the Papp A→B at 2 µM came out at 8.06 ± 0.76 ×10⁻⁶ cm/s and the Papp B→A at 2 µM worked out at 47.7 ± 2.77 ×10⁻⁶ cm/s.

For the origin of these results see publication PMC11649115, “In vitro safety evaluation of dopamine D3R antagonist, R-VK4-116, as a potential medication for the treatment of opioid use disorder” (PLOS ONE, 2024).
